From patent US20240239790A1, “7-Morpholino-1,6-Naphthyridin-5-yl Derivatives and Pharmaceutical Compositions Thereof Useful as DNA-PK Inhibitor” (adMare Therapeutics Society, priority 2021, published 2024)
Read-outs that look alike come from different tables or passages of the source.

Experiments:
[1] = tested on: pDNA-PK induction in HCT116 tumour spheroids; assay: Multicellular tumour spheroid + radiation, pDNA-PK (ser2056) inhibition, immunohistochemical endpoint, HCT116; type: cell-based; conditions: Homo sapiens, HCT-116, 20 Gy, 2 hours following radiation, 20% O2
Procedure: Multicellular tumour spheroids determination of compound inhibition of pDNA-PK induction following radiation. Tumour spheroids were grown to approximately 0.5 mm in diameter and irradiated with 20 Gy in combination with inhibitor test compounds to determine their potency. Inhibitor concentration for 50% reduction in pDNA-PK induction (IC50) was determined via immunohistochemical staining in spheroid cryosections taken 2 hours following radiation.
(§1) Spheroid+radiation pDNA-PK. Radiation: 20 Gy. Drug: serial dilution 5 or 10 μM down to 3.5 nM (11 wells). Spheroids: 3-6 spheroids per well (300-500 μm diameter). 20% 02 and 5% CO2. 96 well plate format.
Protocol: pre-incubate 1 hours with drug, irradiate with 20 Gy, post-incubate 2 hours with drug, freeze and cryosection ×3 replicates.
Endpoint: fluorescent immunostin pDNA-PK ser2056 and image on microscope.
Analysis: determine EC50 concentration that decreases pDNA-PK induction by 50% after radiation.
Multicellular tumour spheroids determination of compound inhibition of pDNA-PK induction following radiation. Tumour spheroids were grown to approximately 0.5 mm in diameter and irradiated with 20 Gy in combination with inhibitor test compounds to determine their potency. Inhibitor concentration for 50% reduction in pDNA-PK induction (IC50) was determined via immunohistochemical staining in spheroid cryosections taken 2 hours following radiation. For cell survival endpoint 8 Gy radiation was used and 3 hours following radiation spheroids were dissociated, counted and plated for colony forming endpoint.
as §1, with “format. Endpoint: fluorescent immunostain pDNA-PK ser2056 and image on microscope. Analysis: determine EC50 concentrations that decreases pDNA-PK induction by 50% after irradiation.” for “format.”
Multicellular tumour spheroids were used to determine potency of test compounds in a 3D tissue environment using inhibition of pDNA-PK induction following radiation or cell survival as the endpoint. For the pDNA-PK endpoint HCT116 or FaDU tumour spheroids were grown to approximately 0.5 mm in diameter and irradiated with 20 Gy in combination with inhibitor test compounds to determine their potency. Experiments were carried out in 96 well plates containing 0.7 mls of MEM media containing 10% FBS and 10 mM glucose under 20% O2 & 5% CO2 at 37° C. Following dilution of compounds 1:1000 from DMSO stocks, compounds were serially diluted from 10 μM down to 3.5 nM and 5-10 spheroids added. 96 well plates were constantly stirred to avoid spheroids settling during the course of the experiment. The inhibitor concentration for 50% reduction in pDNA-PK induction (EC50) was determined via immunohistochemical staining in spheroid cryosections taken 2 hours following radiation using anti-pDNA-PK (ser 2056) and fixed immediately in formalin following sectioning. For cell survival endpoint 8 Gy radiation was used and, 3 hours following radiation, spheroids were dissociated, counted and plated for colony forming endpoint. Data presented in the table compound potency as EC50 [μM].

DNA-PK = biological target: T1, DNA-PK (Homo sapiens, UniProt P78527); assay: DNA-PK Assay for Biochemical Enzymatic Inhibition (ADP Glo Kinase assay); conditions: DNA-PK enzyme, Table 1
T1 construct: purchased Invitrogen PR9107A
Method in brief: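 Human DNA-PK (25 ng) preincubated 15 min with compounds (ten three-fold dilutions) in HEPES pH 7.5, MgCl2, KCl, calf thymus DNA buffer, then substrate 434.4 μM and ATP 64.4 μM (final) for 60 min at room temperature. ADP-Glo luminescence; percent inhibition fitted by four-parameter regression for IC50.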

[2] = biological target: T2, DNA-PK phosphorylation at Serine 2056 (Homo sapiens, UniProt P78527); assay: Cellular Assay for Inhibition of DNA-PK Phosphorylation at Serine 2056 in FaDu cells (sandwich ELISA, neocarzinostatin); type: cell-based; conditions: pSer2056 DNA-PK, neocarzinostatin 1 μg/mL, Table 1
T2 construct: FaDu cells were purchased from ATCC; host or cells: FaDu
Method in brief: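 FaDu cells pre-treated with compound (0.3% DMSO) for 1 h, then neocarzinostatin 1 μg/mL final added for 2 h to induce DSBs. Protein-normalised lysates read by sandwich ELISA for total and pSer2056 DNA-PK; % inhibition normalised between DMSO and NCS controls, IC50 from variable-slope log(inhibitor) fit.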

[3] = Example 9 Study 2, read-out: Spheroid Cell line: HCT116 Immunohistochemical endpoint pDNA-PK inhibition EC50
[4] = Spheroid, Cell Line: HCT115 (so in the source), Example 7, read-out: EC50, Immunohistochemical endpoint, pDNA-PK inhibition

| SMILES | EC50 [1, 3] [µM] | EC50 [1, 4] [µM] | IC50 (DNA-PK) [µM] | IC50 [2] [µM] |
| --- | --- | --- | --- | --- |
| CN(C)C(=O)COc1cnc(N[C@H]2CC[C@@H](Oc3nc(N4CCOCC4)cc4ncc(C(=O)O)cc34)CC2)nc1 [Compound 180, 5-(((1s,4s)-4-((5-(2-(dimethylamino)-2-oxoethoxy)pyrimidin-2-yl)amino)cyclohexyl)oxy)-7-morpholino-1,6-naphthyridine-3-carboxylic acid] | 10 to 100 | 10 to 100 | < 0.0005 | 10 to 30 |
| O=C(O)COc1cnc(N[C@H]2CC[C@@H](Oc3nc(N4CCOCC4)cc4ncc(C(=O)O)cc34)CC2)nc1 [Compound 181, 5-(((1s,4s)-4-((5-(carboxymethoxy)pyrimidin-2-yl)amino)cyclohexyl)oxy)-7-morpholino-1,6-naphthyridine-3-carboxylic acid] | 10 to 100 | 10 to 100 | < 0.0005 | 10 to 30 |
| O=S(=O)(Nc1cnc2cc(N3CCOCC3)nc(O[C@H]3CC[C@@H](Nc4ncccn4)CC3)c2c1)C1CCC1 [Compound 191, N-(7-morpholino-5-(((1s,4s)-4-(pyrimidin-2-ylamino)cyclohexyl)oxy)-1,6-naphthyridin-3-yl)cyclobutanesulfonamide] | 10 to 100 | 10 to 100 | 0.001 to 0.01 | 0.1 to 1 |
| CN(C)S(=O)(=O)Nc1cnc2cc(N3CCOCC3)nc(O[C@H]3CC[C@@H](Nc4ncccn4)CC3)c2c1 [Compound 194, N-[(1s,4s)-4-({3-[(dimethylsulfamoyl)amino]-7-(morpholin-4-yl)-1,6-naphthyridin-5-yl}oxy)cyclohexyl]pyrimidin-2-amine] | 1 to 10 | 1 to 10 | < 0.0005 | 0.1 to 1 |
| O=S1(=O)CCCN1c1cnc2cc(N3CCOCC3)nc(O[C@H]3CC[C@@H](Nc4ncccn4)CC3)c2c1 [Compound 195, 2-(7-morpholino-5-(((1s,4s)-4-(pyrimidin-2-ylamino)cyclohexyl)oxy)-1,6-naphthyridin-3-yl)isothiazolidine 1,1-dioxide] | 10 to 100 | 10 to 100 | 0.01 to 0.15 | 1 to 10 |
| NC(=O)Nc1cnc2cc(N3CCOCC3)nc(O[C@H]3CC[C@@H](Nc4ncccn4)CC3)c2c1 [Compound 196, 1-(7-morpholino-5-(((1s,4s)-4-(pyrimidin-2-ylamino)cyclohexyl)oxy)-1,6-naphthyridin-3-yl)urea] | 1 to 10 | 1 to 10 | 0.001 to 0.01 | 0.1 to 1 |

Other lines, results leading:

| EC50 [1, 3] [µM] | EC50 [1, 4] [µM] | IC50 (DNA-PK) [µM] | IC50 [2] [µM] | SMILES |
| --- | --- | --- | --- | --- |
| 10 to 100 | 10 to 100 | 0.01 to 0.15 | 10 to 30 | c1ccc(CSc2cnc3cc(N4CCOCC4)nc(O[C@H]4CC[C@@H](Nc5ncccn5)CC4)c3c2)cc1 [Compound 200c, N-((1s,4s)-4-((3-(benzylthio)-7-morpholino-1,6-naphthyridin-5-yl)oxy)cyclohexyl)pyrimidin-2-amine] |
| 1 to 10 | 1 to 10 | 0.001 to 0.01 | 0.1 to 1 | CSc1cnc2cc(N3CCOCC3)nc(O[C@H]3CC[C@@H](Nc4ncccn4)CC3)c2c1 [Compound 200d, N-((1s,4s)-4-((3-(methylthio)-7-morpholino-1,6-naphthyridin-5-yl)oxy)cyclohexyl)pyrimidin-2-amine] |
